# In PMC11438743, “High-dose colistin pharmacokinetics in critically ill patients receiving continuous renal replacement therapy” (Annals of Intensive Care, 2024):
# Read-outs that look alike come from different tables or passages of the source.
# Legend:
# [1] = Colistin plasma pharmacokinetics at steady state in critically ill patients undergoing CRRT (CVVHDF); format: in vivo, human; settings: median [IQR]
# Description: According to current guidelines, CMS high dosage (HD) was administered intravenously (IV) at loading dose (LD) of 9 MIU […] over 30-min, followed by 6.75 MIU over 30-min q12. On day 4, at steady state, pharmacokinetic analyses of the study group were performed. CRRT was delivered as continuous veno-venous hemodiafiltration (CVVHDF) with Prismaflex ST150 (Gambro AB, Lund, Sweden) using the AN69 ST membrane (acrylonitrile-sodium-methyl sulfonate surface treated; surface area, 1.5m2) and regional citrate anticoagulation. Dose intensity was prescribed according to current guidelines, and with a ratio of dialysate to replacement fluid of 1:1. The CRRT circuit and membrane were changed every 72 h, as standard operating procedure in our center.
# Although colistin concentration-time profiles are stable just on day 3, blood samples were collected after the seventh dose (on day 4 of treatment) at T0 (immediately before the initiation of CMS infusion) and 1 h, 2 h, 4 h, 6 h, 8 h, 10 h and 12 h from the start of CMS infusion. First order kinetic determined pharmacokinetic parameters; maximum and minimum concentrations (Cmax, Cmin) were directly obtained from observed peak and trough concentrations. The 0–12 h area under the time–concentration curve (AUC0–12 ) was determined by the linear trapezoidal rule. Colistin AUC0–24 was calculated as AUC0–12 × 2. The average steady-state plasma concentration (Css, avg) was obtained from the ratio of colistin AUC 0–24 above T (i.e. the dosage interval). In all patients, distribution volume (Vd), drug clearance (CL), and elimination half-life (t1/2 ) were calculated after a single 6.75 MIU intravenous dose at steady state. According to current guidelines, the recommended PK/PD therapeutic target has been considered the area under the plasma concentration- time curve across 24 h at steady state above MIC (fAUCss 0−24 hr) of ~ […], that equates to a target Css, avgof ~ 2 mg/L of the total drug against susceptible strains (MIC ≤ 2 mcg/mL). […] Colistin and CMS concentration were measured using and modifying the Gobin assay.
# [2] = cited from earlier work
# Description: Several variables may influence colistin plasma concentration as demographic (e.g. body mass), clinical (e.g. kidney function) and therapeutic (e.g. RRT modality, membrane, mode and dose) variables. In order to account for CRRT removal of colistin, the 2019 international guidelines for the optimal use of polymyxins recommend administering a daily dose of 440 colistin base activity (CBA), corresponding to ≈ 13,3 MIU or ≈ 1173 mg of CMS in patients who are exposed to this extracorporeal organ support. […] The authors, documenting a 62% ClCVVHDF, formulated a pharmacokinetic model where a LD of 12 MIU followed by a maintenance dosage of 6.75–7.5 MIU q12 would be needed to achieve a target Css, avg of 2–3 mcg/mL [31]. […] Further, in the latest and largest investigation on this topic, ten critically ill patients requiring CRRT and receiving CMS 3 MIU q8 were prospectively studied.
# [3] = test system: Acinetobacter spp.; experiment: Colistin MIC of BAL isolates (Micronaut AST BMD, VITEK 2 AST-N397, EUCAST v11.0); format: cell-based; settings: BAL Acinetobacter spp. isolates of 20 patients; median [interquartile range]
# Description: Bacterial isolates were identified by using matrix-assisted laser desorption ionization-time of flight mass spectrometry (MALDI-TOF MS). MICs were determined by a Micronaut AST system-based BMD, VITEK 2 AST-N397 card, according to the manufacturer’s instructions. EUCAST (version 11.0, 2021) clinical breakpoints were used to interpret MICs. In pneumonia episodes, microbiological evidence of bacterial infection was achieved by processing respiratory samples both for conventional and fast-microbiology panel testing. […] Semiquantitative culture results were obtained using calibrated loops to inoculate and streak samples on both selective/differential.
# [4] = plasmatic absorption after aerosolization of either 3 MIU and 5 MIU CMS; cited from earlier work
# Excerpt: In our study, all patients underwent CVVHDF with a similar daily dose and since this technique uses diffusion across a concentration gradient (e.g. hemodialysis) in addition to hemofiltration across a pressure gradient, the equivalences of the two modes with respect to CMS/colistin clearance are unknown. Additionally none of our patients had residual renal function and almost all were also receiving high dose nebulized CMS (5 MIU q8), delivered through vibrating mesh nebulizers, potentially contributing to the higher than expected steady-state colistin levels. In our study we cannot asc ...
# [5] = in vivo, iv
# Description: Clinical and demographic data were recorded upon enrolment. […] Renal recovery was defined as a reduction in peak AKI-KDIGO stage [21] and was evaluated in patients without chronic kidney disease.
# [6] = test system: CR-Acinetobacter baumannii ventilator associated pneumonia (VAP); experiment: Clinical outcome of patients treated with high-dose intravenous colistimethate; format: in vivo, human; settings: 20 patients, IV CMS 9 MIU LD then 6.75 MIU q12 in combination therapy, no control group
# [7] = colistin, 20 patients on CVVHDF (AN69 ST membrane), steady state
# [8] = eight critically ill patients receiving CRRT, CMS 4.5 MIU q12
# [9] = five patients on CRRT, CMS until 2 MIU q8
# [10] = ten critically ill patients requiring CRRT, CMS 3 MIU q8
molecule,measurement,setting,value
"CC[C@H](C)CCCCC(=O)N[C@@H](CCN)C(=O)N[C@H](C(=O)N[C@@H](CCN)C(=O)N[C@H]1CCNC(=O)[C@H]([C@@H](C)O)NC(=O)[C@H](CCN)NC(=O)[C@H](CCN)NC(=O)[C@H](CC(C)C)NC(=O)[C@@H](CC(C)C)NC(=O)[C@H](CCN)NC1=O)[C@@H](C)O (mixture of isomers) [Colistin, Colistin (polymixin E)]",%E (% filter extraction),[1]; [7],17.65 [14.98–21.67] %
same,CLCRRT,[1]; [7],1.21 [0.88–1.35] L/h
same,Vd,"[1]; human, plasma, colistin, 20 patients on CVVHDF, after a single 6.75 MIU IV CMS dose at steady state",126 L
same,half-life,"[1]; human, plasma, colistin, 20 patients on CVVHDF, after a single 6.75 MIU IV CMS dose at steady state, one-compartment, first order",20.9 h
same,clearance,"[1]; human, plasma, colistin, 20 patients on CVVHDF, after the seventh 6.75 MIU IV CMS dose at steady state, read-out: CLTOT (converted)",34.7 mL/min
same,Cmax,"[1]; human, plasma colistin, 20 critically ill anuric patients on CVVHDF (AN69 ST, 32.5 mL/kg/h), IV CMS 9 MIU LD then 6.75 MIU q12, after seventh dose (day 4, steady state), observed peak, modified Gobin assay",16600 ng/mL
same,AUC(0-t),"[1]; human, plasma colistin, 20 patients on CVVHDF, IV CMS 6.75 MIU q12 after 9 MIU LD, day 4, AUC0-12 (linear trapezoidal) x 2, read-out: AUC0-24",194 µg·h/mL
same,level at 96 h,"[1]; human, plasma colistin, 20 patients on CVVHDF, IV CMS 9 MIU LD then 6.75 MIU q12, after seventh dose (day 4), observed trough, read-out: Cmin",3930 ng/mL
same,"Css, avg (average steady-state concentration)","[1]; plasma colistin, 20 patients on CVVHDF, IV CMS 9 MIU LD then 6.75 MIU q12, day 4, AUC0-24 over dosage interval",8.07 [7.1–8.69] mcg/mL
same,"Css, avg in patients who recovered renal function","[1]; plasma colistin, subgroup with renal recovery, p = 0.026 vs no renal recovery","7.48 [6.35, 8.05] mcg/mL"
same,"Css, avg in patients that had no renal recovery","[1]; plasma colistin, subgroup without renal recovery, p = 0.026 vs renal recovery","8.31 [7.35, 9.13] mcg/mL"
same,fAUC0-24,"[1]; unbound colistin, unbound fraction derived from literature, 20 patients on CVVHDF, IV CMS 6.75 MIU q12, day 4",58.16 [51.18–62.6] mcg h/mL
same,ClCVVHDF,[2]; [8],62%
same,median Cmax,[2]; [8],1720 ng/mL
same,CLHDF,[2]; [9],above 4 L/h
same,"Css, avg",[2]; [9],≤ 1 µg/mL
same,membrane extraction ratio,[2]; [9],68%
same,steady-state concentrations,"[2]; high CMS daily administration schedules during CRRT, especially with residual renal function and prolonged course",above 10 mcg/mL
same,AUC0-24,[2]; [10],569 [404–741] mcg h/mL
same,CRRT clearance as share of total clearance,[2]; [10],28%
same,"Css, avg",[2]; [10],4.43 [3.01–7.24] mcg/mL
same,effluent clearance share,[2]; three patients on CRRT,about 40%
same,MIC,[3],1[1-1.5] mcg/mL
same,colistin concentrations after aerosolization,[4],< 1 µg/mL
colistimethate [CMS],CRRT clearance as share of total clearance,"[2]; human, in vivo",41%
same,median Cmax,"[2]; human, in vivo",12600 ng/mL
same,"risk to overcome the safety limit of Css, avg ≥ 4 mcg/mL","[2]; human, in vivo",less than 30%
same,"target attainment rate (Css, avg ≥ 2 mcg/mL)","[2]; human, in vivo",80%
same,Renal Recovery,[5],6 (37.5) count (percentage)
same,Death in ICU,[6]; 18 with nebulized CMS,15 (75) count (percentage)
same,Treatment failure,[6],14 (70) count (percentage)
